Experimental data from patent US20170049781A1, “HSP90 INHIBITOR COMBINATIONS” (Novartis AG, priority 2008, published 2017).

How the values were obtained:
Assay type in all cases: cell-based, human
[1] = tested on: phosphorylated AKT (P-AKT(S473), T308); test: Western blot of AKT phosphorylation in MDA-MB-231 breast tumor cells; details: MDA-MB-231 cells
Procedure: (§1) Two cancer derived cell lines are used (BT474 and MDA-MB-231). These are human breast carcinoma cell lines. The cell lines are commercially available from American Type Culture Collection (ATCC). BT474 cells are maintained in Hybri-Care medium (ATCC) supplemented with 10% v/v fetal calf serum and 2 mM L-glutamine. MDB-MB-231 cells are grown in RPMI 1640 medium (Animed, Allschwil, Switzerland) supplemented with 10% v/v fetal calf serum and 2 mM L-glutamine. The media are supplemented with 100 microgramm/ml penicillin/streptomycin and cells are maintained at 37° C. in 5% CO2.
(§2) After division and medium change, cells from stock culture are seeded at a density of 3.3×10^4 cells/cm^2 (BT474) and 1.2×10^4 cells/cm^2 (MDB-MB-231) on cell plates and incubated for 48 hours at 37° C. and 5% CO2 prior to the treatment with DMSO vehicle, 20 nM everolimus (RAD001) and/or various concentrations of AUY922 (compound 1) for 24 hours. To prepare cell lysates culture plates are washed once with ice-cold phosphor buffered saline (PBS) containing 1 mM phenylmethylsulfonyl fluoride (PMSF) and once with ice-cold extraction buffer (50 mM Hepes pH 7.4, 150 mM NaCl, 25 mM beta-glycerophosphate, 25 mM NaF, 5 mM EGTA, 1 mM EDTA, 15 mM PPi, 2 mM sodium orthovanadate, 10 mM sodium molybdate, leupeptin (10 microgramm/ml), aprotinin (10 microgramm/ml), 1 mM DTT and 1 mM PMSF. Cells are extracted in the same buffer, containing 1% NP-40. The extracts are homogenized, cleared by centrifugation, aliquoted and frozen at −80° C. Protein concentration is determined with the BCA Protein Assay (Pierce, Rockford, Ill., USA).
(§3) Twenty micrograms of cell extracts are resolved electrophoretically on 12% denaturing sodium dodecyl sulfate polyacrylamide gels (SDS-PAGE) and transferred to polyvinylidene difluoride filters by wet-blotting (1 hour at 250 mA) and probed overnight at 4° C. with the following primary antibodies:
(§4) anti-phospho-Akt (Ser473) (clone 14-05; 1:2000) obtained from DAKO (Glostrup, Denmark) and diluted in PBS, 0.5% v/v Tween. […]

[2] = tested on: phosphorylated AKT (P-AKT(S473) and P-AKT(T308)); test: Western blot of AKT phosphorylation in BT474 breast tumor cells
Procedure: as §1, §2, §3, §4

AKT = test: Western blot of AKT levels in MDA-MB-231 breast tumor cells; details: MDA-MB-231 cells, 100 nM Compound I
Procedure: as §1
After division and medium change, cells from stock culture are seeded at a density of 3.3×10^4 cells/cm^2 (BT474) and 1.2×10^4 cells/cm^2 (MDB-MB-231) on cell plates and incubated for 48 hours at 37° C. and 5% CO2 prior to the treatment with DMSO vehicle, 20 nM everolimus (RAD001) and/or various concentrations of AUY922 (compound 1) for 24 hours. […]

Structure (SMILES)	AKT phosphorylation (P-AKT(S473)) ([1]; 50-100 nM compound I, 24 hours)	AKT phosphorylation (P-AKT(S473) and P-AKT(T308)) ([2]; BT474 cells, 50-100 nM compound I, 24 hours)	AKT levels (AKT)	levels of phosphorylated AKT (P-AKT(S473)) compared to an untreated control ([1]; 20 nM RAD001, 24 hours)	phosphorylation of AKT at amino acid residue T308 on addition of RAD001 in the presence of compound I ([1]; 20 nM RAD001 in the presence of 50-100 nM compound I (combination))	AKT phosphorylation (P-AKT(S473) and P-AKT(T308)) on addition of RAD001 in the presence of compound I ([2]; BT474 cells, 20 nM RAD001 in the presence of 50-100 nM compound I (combination))	levels of phosphorylated AKT (P-AKT(S473) and P-AKT(T308)) compared to an untreated control ([2]; BT-474 cells, 20 nM RAD001, 24 hours)
COc1cccc(-c2ccccc2[C@H]2Cc3nc(N)nc(C)c3C(=O)N2)n1 [compound I, (R)-2-amino-7-[2-(6-methoxy-pyridin-2-yl)-phenyl]-4-methyl-7,8-dihydro-6H-pyrido[4,3-d]pyrimidin-5-one]	diminished	diminished	slightly decreased				
CO[C@H]1C[C@@H]2CC[C@@H](C)[C@@](O)(O2)C(=O)C(=O)N2CCCC[C@H]2C(=O)O[C@H]([C@H](C)C[C@@H]2CC[C@@H](OCCO)[C@H](OC)C2)CC(=O)[C@H](C)/C=C(\C)[C@@H](O)[C@@H](OC)C(=O)[C@H](C)C[C@H](C)/C=C/C=C/C=C/1C [RAD001, 40-O-(2-hydroxyethyl)-rapamycin]				increased levels of phosphorylated AKT	did not cause increased phosphorylation of AKT	did not cause increase in AKT phosphorylation	increased levels of phosphorylated AKT
